Reference: ChEMBL document CHEMBL1143621, “Identification and structure-activity relationship of phenolic acyl hydrazones as selective agonists for the estrogen-related orphan nuclear receptors ERRbeta and ERRgamma” (J Med Chem, 2005)

Legend:
[1] = biological target: T1, Estrogen-related receptor gamma (Homo sapiens, UniProt P62508); assay: Estrogen-Related Receptor gamma activity in FRET assay; format: functional
T1 sequence (P62508 whole entry): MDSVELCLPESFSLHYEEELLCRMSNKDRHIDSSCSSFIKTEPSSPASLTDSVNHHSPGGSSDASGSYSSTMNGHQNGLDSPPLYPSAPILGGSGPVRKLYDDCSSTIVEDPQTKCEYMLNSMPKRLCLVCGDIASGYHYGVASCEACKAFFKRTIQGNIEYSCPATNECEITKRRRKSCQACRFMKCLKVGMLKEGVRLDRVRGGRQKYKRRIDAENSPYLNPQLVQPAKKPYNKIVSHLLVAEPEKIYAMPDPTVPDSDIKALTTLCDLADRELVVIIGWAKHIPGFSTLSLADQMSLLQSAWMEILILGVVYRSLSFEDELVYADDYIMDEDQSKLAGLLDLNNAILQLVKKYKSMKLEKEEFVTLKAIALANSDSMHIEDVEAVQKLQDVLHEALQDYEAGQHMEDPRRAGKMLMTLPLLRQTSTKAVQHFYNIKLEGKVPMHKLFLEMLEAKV

[2] = biological target: T1, Estrogen-related receptor gamma; assay: Estrogen-Related Receptor gamma activity in FRET assay; i.a.=inactive at 3 uM; format: functional
[3] = biological target: T1, Estrogen-related receptor gamma; assay: Inhibition of [3H]4-OHT binding to Estrogen-Related Receptor gamma

| EC50 [1] [nM] | EC50 [2] | IC50 [3] [nM] | Structure (SMILES) |
| --- | --- | --- | --- |
| – | Not Active | – | CCN(CC)c1ccc(/C=N/NS(=O)(=O)c2ccc(O)cc2)cc1 |
| – | Not Active | – | CCN(CC)c1ccc(/C=N/NC(=O)c2ccc(O)cc2)c(O)c1 |
| – | Not Active | – | CC(C)c1ccc(C(=O)NNC(=O)c2ccc(O)cc2)cc1 |

More lines, now with the values behind:

| Structure (SMILES) | EC50 [1] [nM] | EC50 [2] | IC50 [3] [nM] |
| --- | --- | --- | --- |
| CCN(CC)c1ccc(/C(C)=N/NC(=O)c2ccc(O)cc2)cc1 | 500 | – | – |
| CCN(CC)c1ccc(/C=N/NC(=O)c2ccc(N)cc2)cc1 | 630 | – | – |
| CCN(CC)c1ccc(/C=N/NC(=O)c2ccc(F)cc2)cc1 | – | Not Active | – |
| CCN(CC)c1ccc(/C=N/NC(=O)c2ccc(O)cc2)cc1 | 130 | – | 660 |
| CCN(CC)c1ccc(/C=N/NC(=O)c2ccccc2)cc1 | 1600 | – | – |
| CC(C)(C)Oc1ccc(/C=N/NC(=O)c2ccc(O)cc2)cc1 | – | Not Active | – |
